IC50 data for 28 compounds are collected here from US10100058B2, “Fused heterocyclic compounds as CaM kinase inhibitors” (Gilead Sciences, Inc., priority 2016, dated 2018).

In the test the target is recombinant CaMKIIδ (Homo sapiens (Human), UniProt Q13557). As to the kind of experiment: CaMKIIδ biochemical assay (HTRF). As to conditions: 10 pM CaMKIIδ, 110 nM calmodulin, 12 μM ATP, 1 hour; read-out: CAMKIID-HTRF-384V2 (IC50 - nM). On the procedure: CaMKIIδ Biochemical Assay
The biochemical activity of recombinant CaMKIIδ was measured by monitoring the phosphorylation of a target peptide using Homogenous Time Resolved Fluorescence (HTRF) technology from CisBio Bioassays.
Background: Time-resolved FRET reads energy transfer from a long-lived donor to a nearby acceptor.
For orientation: IC50 means the concentration that inhibits the measured activity by half. With `CNc1cnc(-c2cnn3ccc(-c4ccccc4)nc23)cc1C(=O)N1CCCC[C@@H]1CN` [Example 139, (R)-(2-(aminomethyl)piperidin-1-yl)(5-(methylamino)-2-(5-phenylpyrazolo[1,5-a]pyrimidin-3-yl)pyridin-4-yl)methanone], the IC50 stood at 0.87 nM.

With `Cc1cnc(-c2cnn3ccc(-c4ccccc4)nc23)cc1C(=O)N1CCCC[C@@H]1[C@@H](C)N` [Example 140, ((R)-2-((R)-1-aminoethyl)piperidin-1-yl)(5-methyl-2-(5-phenylpyrazolo[1,5-a]pyrimidin-3-yl)pyridin-4-yl)methanone], the half-maximal inhibitory concentration (IC50) worked out at 1.91 nM.

As to `CCN(CC)[C@@H](C)CNC(=O)c1cc(-c2cnn3ccc(-c4cccs4)nc23)nc(N2CC(C#N)C2)c1` [Example 142, (S)-2-(3-cyanoazetidin-1-yl)-N-(2-(diethylamino)propyl)-6-(5-(thiophen-2-yl)pyrazolo[1,5-a]pyrimidin-3-yl)isonicotinamide], the IC50 was 0.1 nM.

As to `CCOC1CN(c2cc(C(=O)NC[C@H](C)N(CC)CC)cc(-c3cnn4ccc(-c5cccs5)nc34)n2)C1` [Example 143, (S)—N-(2-(diethylamino)propyl)-2-(3-ethoxyazetidin-1-yl)-6-(5-(thiophen-2-yl)pyrazolo[1,5-a]pyrimidin-3-yl)isonicotinamide], the IC50 is 0.17 nM.

Take `CCN(CC)[C@@H](C)CNC(=O)c1cc(-c2cnn3ccc(-c4cccs4)nc23)nc(N2CC(OC(F)F)C2)c1` [Example 144, (S)—N-(2-(diethylamino)propyl)-2-(3-(difluoromethoxy)azetidin-1-yl)-6-(5-(thiophen-2-yl)pyrazolo[1,5-a]pyrimidin-3-yl)isonicotinamide]: the IC50 came to 0.18 nM.

As to `CCN(CC)[C@@H](C)CNC(=O)c1cc(-c2cnn3ccc(-c4cccs4)nc23)nc(N2CCC2)c1` [Example 146, (S)-2-(azetidin-1-yl)-N-(2-(diethylamino)propyl)-6-(5-(thiophen-2-yl)pyrazolo[1,5-a]pyrimidin-3-yl)isonicotinamide], the IC50 was 0.19 nM.

In the case of `CCN(CC)[C@@H](C)CNC(=O)c1cc(-c2cnn3ccc(-c4cccs4)nc23)nc(N2CC(C(F)(F)F)C2)c1` [Example 147, (S)—N-(2-(diethylamino)propyl)-2-(5-(thiophen-2-yl)pyrazolo[1,5-a]pyrimidin-3-yl)-6-(3-(trifluoromethyl)azetidin-1-yl)isonicotinamide], the IC50 was determined as 0.34 nM.

Regarding `CCN(CC)[C@@H](C)CNC(=O)c1cc(-c2cnn3ccc(-c4cccs4)nc23)nc(N2CC(F)(F)C2)c1` [Example 148, (S)—N-(2-(diethylamino)propyl)-2-(3,3-difluoroazetidin-1-yl)-6-(5-(thiophen-2-yl)pyrazolo[1,5-a]pyrimidin-3-yl)isonicotinamide], the IC50 was 0.21 nM.

For the compound `CCN(CC)[C@@H](C)CNC(=O)c1cc(-c2cnn3ccc(-c4cccs4)nc23)nc(N2CC(S(C)(=O)=O)C2)c1` [Example 149, (S)—N-(2-(diethylamino)propyl)-2-(3-(methylsulfonyl)azetidin-1-yl)-6-(5-(thiophen-2-yl)pyrazolo[1,5-a]pyrimidin-3-yl)isonicotinamide], the IC50 is 0.14 nM.

Take `CCN(CC)[C@@H](C)CNC(=O)c1cc(-c2cnn3ccc(-c4cccs4)nc23)nc(N2CC(S(=O)(=O)NC)C2)c1` [Example 150, (S)—N-(2-(diethylamino)propyl)-2-(3-(N-methylsulfamoyl)azetidin-1-yl)-6-(5-(thiophen-2-yl)pyrazolo[1,5-a]pyrimidin-3-yl)isonicotinamide]: the concentration for half-maximal inhibition (IC50) is 0.2 nM.

On to `CCN(CC)[C@@H](C)CNC(=O)c1cc(-c2cnn3ccc(-c4cccs4)nc23)nc(N2CC(S(=O)(=O)NC3CC3)C2)c1` [Example 151, (S)-2-(3-(N-cyclopropylsulfamoyl)azetidin-1-yl)-N-(2-(diethylamino)propyl)-6-(5-(thiophen-2-yl)pyrazolo[1,5-a]pyrimidin-3-yl)isonicotinamide], for which the IC50 is 0.32 nM.

`CCN(CC)[C@@H](C)CNC(=O)c1cc(-c2cnn3ccc(-c4cccs4)nc23)nc(N2CC(C)(C)C2)c1` [Example 152, (S)—N-(2-(diethylamino)propyl)-2-(3,3-dimethylazetidin-1-yl)-6-(5-(thiophen-2-yl)pyrazolo[1,5-a]pyrimidin-3-yl)isonicotinamide]: the IC50 was 0.59 nM.

For the compound `CCN(CC)[C@@H](C)CNC(=O)c1cc(-c2cnn3ccc(-c4cccs4)nc23)nc(N2CC(F)C2)c1` [Example 153, (S)—N-(2-(diethylamino)propyl)-2-(3-fluoroazetidin-1-yl)-6-(5-(thiophen-2-yl)pyrazolo[1,5-a]pyrimidin-3-yl)isonicotinamide], the IC50 came out at 0.13 nM.

`CCN(CC)[C@@H](C)CNC(=O)c1cc(-c2cnn3ccc(-c4cccs4)nc23)nc(N2CC(NS(=O)(=O)C3CC3)C2)c1` [Example 154, (S)-2-(3-(cyclopropanesulfonamido)azetidin-1-yl)-N-(2-(diethylamino)propyl)-6-(5-(thiophen-2-yl)pyrazolo[1,5-a]pyrimidin-3-yl)isonicotinamide]: the IC50 is 0.28 nM.

As for `CCN(CC)[C@@H](C)CNC(=O)c1cc(-c2cnn3ccc(-c4cccs4)nc23)nc(N2CCn3ccnc3C2)c1` [Example 155, (S)—N-(2-(diethylamino)propyl)-2-(5,6-dihydroimidazo[1,2-a]pyrazin-7(8H)-yl)-6-(5-(thiophen-2-yl)pyrazolo[1,5-a]pyrimidin-3-yl)isonicotinamide], the IC50 was 0.32 nM.

As for `CCN(CC)[C@@H](C)CNC(=O)c1cc(-c2cnn3ccc(-c4cccs4)nc23)nc(N2CCC(O)C(F)(F)C2)c1` (stereo partly drawn) [Example 156, N—((S)-2-(diethylamino)propyl)-2-(3,3-difluoro-4-hydroxypiperidin-1-yl)-6-(5-(thiophen-2-yl)pyrazolo[1,5-a]pyrimidin-3-yl)isonicotinamide], the IC50 stood at 0.85 nM.

With `CCN(CC)[C@@H](C)CNC(=O)c1cc(NCCN(C)C)nc(-c2cnn3ccc(-c4cccs4)nc23)c1` [Example 157, (S)—N-(2-(diethylamino)propyl)-2-((2-(dimethylamino)ethyl)amino)-6-(5-(thiophen-2-yl)pyrazolo[1,5-a]pyrimidin-3-yl)isonicotinamide], the IC50 came out at 0.07 nM.

`CCN(CC)[C@@H](C)CNC(=O)c1cc(NCCN(C)C)nc(-c2cnn3ccc(-c4ccccc4)nc23)c1` [Example 158, (S)—N-(2-(diethylamino)propyl)-2-((2-(dimethylamino)ethyl)amino)-6-(5-phenylpyrazolo[1,5-a]pyrimidin-3-yl)isonicotinamide]: the IC50 came out at 0.56 nM.

Turning to `COC1CN(c2cc(C(=O)NCC3(N)CCC3)cc(-c3cnn4ccc(-c5ccccc5)nc34)n2)C1` [Example 159, N-((1-aminocyclobutyl)methyl)-2-(3-methoxyazetidin-1-yl)-6-(5-phenylpyrazolo[1,5-a]pyrimidin-3-yl)isonicotinamide], the concentration for half-maximal inhibition (IC50) stood at 84.6 nM.

In the case of `CCN(CC)[C@@H](C)CNC(=O)c1cc(-c2cnn3ccc(-c4ccccc4)nc23)nc(N2CC(OC)C2)c1` [Example 160, (S)—N-(2-(diethylamino)propyl)-2-(3-methoxyazetidin-1-yl)-6-(5-phenylpyrazolo[1,5-a]pyrimidin-3-yl)isonicotinamide], the IC50 was determined as 1.15 nM.

For `COC1CN(c2cc(C(=O)NCC34CCCN3CCC4)cc(-c3cnn4ccc(-c5ccccc5)nc34)n2)C1` [Example 161, N-((hexahydro-1H-pyrrolizin-7a-yl)methyl)-2-(3-methoxyazetidin-1-yl)-6-(5-phenylpyrazolo[1,5-a]pyrimidin-3-yl)isonicotinamide], the IC50 amounted to 105 nM.

In the case of `CCN(CC)[C@@H](C)CNC(=O)c1cc(-c2cnn3ccc(-c4cccs4)nc23)nc(N2CCC(C)(O)CC2)c1` [Example 163, (S)—N-(2-(diethylamino)propyl)-2-(4-hydroxy-4-methylpiperidin-1-yl)-6-(5-(thiophen-2-yl)pyrazolo[1,5-a]pyrimidin-3-yl)isonicotinamide], the IC50 was determined as 0.18 nM.

`CCN(CC)[C@@H](C)CNC(=O)c1cc(NCC2(N3CCCC3)COC2)nc(-c2cnn3ccc(-c4cccs4)nc23)c1` [Example 164, (S)—N-(2-(diethylamino)propyl)-2-(((3-(pyrrolidin-1-yl)oxetan-3-yl)methyl)amino)-6-(5-(thiophen-2-yl)pyrazolo[1,5-a]pyrimidin-3-yl)isonicotinamide]: the IC50 worked out at 0.38 nM.

In the case of `CCN(CC)[C@@H](C)CNC(=O)c1cc(-c2cnn3ccc(-c4ccsc4)nc23)nc(N2CC(OC)C2)c1` [Example 165, (S)—N-(2-(diethylamino)propyl)-2-(3-methoxyazetidin-1-yl)-6-(5-(thiophen-3-yl)pyrazolo[1,5-a]pyrimidin-3-yl)isonicotinamide], the IC50 was 0.13 nM.

With `CCN(CC)[C@@H](C)CNC(=O)c1cc(-c2cnn3ccc(-c4cncnc4)nc23)nc(N2CC(OC)C2)c1` [Example 166, (S)—N-(2-(diethylamino)propyl)-2-(3-methoxyazetidin-1-yl)-6-(5-(pyrimidin-5-yl)pyrazolo[1,5-a]pyrimidin-3-yl)isonicotinamide], the IC50 came out at 26 nM.

In the case of `CCN(CC)[C@@H](C)CNC(=O)c1cc(-c2cnn3ccc(-c4cccs4)nc23)nc(N2CCCS2(=O)=O)c1` [Example 167, (S)—N-(2-(diethylamino)propyl)-2-(1,1-dioxidoisothiazolidin-2-yl)-6-(5-(thiophen-2-yl)pyrazolo[1,5-a]pyrimidin-3-yl)isonicotinamide], the 50% inhibitory concentration (IC50) was determined as 0.16 nM.

Consider `C[C@H](N)CNC(=O)c1cc(-c2cnn3ccc(-c4cccs4)nc23)nc(N2CC(O)C2)c1` [Example 168, (S)—N-(2-aminopropyl)-2-(3-hydroxyazetidin-1-yl)-6-(5-(thiophen-2-yl)pyrazolo[1,5-a]pyrimidin-3-yl)isonicotinamide], for which the half-maximal inhibitory concentration (IC50) came to 18.1 nM.

`CCN[C@@H](C)CNC(=O)c1cc(-c2cnn3ccc(-c4cccs4)nc23)nc(N2CC(O)C2)c1` [Example 169, (S)—N-(2-(ethylamino)propyl)-2-(3-hydroxyazetidin-1-yl)-6-(5-(thiophen-2-yl)pyrazolo[1,5-a]pyrimidin-3-yl)isonicotinamide]: the IC50 was 9.11 nM.
